A short description of assay [1]: Shn3 3'UTR reporter inhibitors, dose response, cell-based, Clone20 osteoblasts, firefly luciferase, cherry-picked (AID 624132).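 Further: firefly luciferase luminescence from reporter carrying the Shn3 3'UTR in osteoblasts.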 The class given is functional.
A short description of assay [2]: HepG2 cell cytotoxicity, dose response, cytotoxicity control for Shn3 inhibitor project, CellTiter-Glo, cherry-picked (AID 624134). The assay is classed as functional, cell-based. On the technique in general: In ATP-based viability assays light output follows the ATP content of the culture.
Assay [3] in a line: control 3'UTR Renilla luciferase suppression, dose response, counter-screen for Shn3 inhibitor project, cell-based, Clone20-Shn3RL, cherry-picked (AID 624133). The assay is classed as functional.
A further assay concerns the target Protein Wnt-3a (Mus musculus, UniProt P27467). Nature of the assay: Wnt3a-driven reporter signaling inhibition, dose response, selectivity assay for Gli-SUFU antagonist project, Wnt-LIGHT cells, luminescence (AID 651570).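 Further: Wnt-LIGHT reporter cells stimulated with conditioned medium from Wnt3a-producing cells.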 The assay is classed as functional. The conditions noted are these: read-out: IC50_Mean.
Another assay deals with T1, Galanin receptor type 3 (Homo sapiens, UniProt O60755).
T1 sequence (O60755 whole entry): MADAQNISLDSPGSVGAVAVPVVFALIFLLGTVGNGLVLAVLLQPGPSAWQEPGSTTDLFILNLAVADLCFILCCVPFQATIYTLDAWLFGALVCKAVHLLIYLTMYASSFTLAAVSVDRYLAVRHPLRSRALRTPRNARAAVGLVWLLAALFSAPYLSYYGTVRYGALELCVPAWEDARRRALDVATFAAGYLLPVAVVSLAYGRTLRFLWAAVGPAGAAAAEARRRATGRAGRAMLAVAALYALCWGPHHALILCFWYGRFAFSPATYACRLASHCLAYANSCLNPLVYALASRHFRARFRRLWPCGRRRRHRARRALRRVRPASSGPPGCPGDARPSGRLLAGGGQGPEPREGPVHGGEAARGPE
Nature of the assay: Fluorescence-based cell-based primary high throughput dose response assay to identify antagonists of the Galanin Receptor 3 (GalR3). The assay is classed as functional.

Assay [4] in a line: cells. The assay is classed as functional, cell-based. To be noted: HEK-CNG.
For assay [5], the target named is COUP transcription factor 2 (Homo sapiens, UniProt P24468). Nature of the assay: Luminescence-based cell-based high throughput dose response assay to identify inhibitors of COUP-TFII (NR2F2). The assay is classed as functional.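 Further: HEK293 cells transiently cotransfected with COUP-TFII expression vector and reporter; luciferase reporter luminescence driven by COUP-TFII from the pX2-168 reporter plasmid.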
Another assay deals with Protein Tat (Human immunodeficiency virus type 1 group M subtype B (isolate HXB2)(HIV-1), UniProt P04608). The assay is classed as functional.
Assay [6] relates to Streptococcus sp. 'group A'. Nature of the assay: growth inhibition of control SK(-) GAS strain, dose response, counter-screen for streptokinase expression inhibitor project, luminescence, kanamycin, BacTiterGlo, confirmation (AID 1900). The assay is classed as functional, organism-based.
In the next assay the target is T2, Streptokinase A (Streptococcus pyogenes serotype M1, UniProt P10520).
T2 sequence (P10520 whole entry): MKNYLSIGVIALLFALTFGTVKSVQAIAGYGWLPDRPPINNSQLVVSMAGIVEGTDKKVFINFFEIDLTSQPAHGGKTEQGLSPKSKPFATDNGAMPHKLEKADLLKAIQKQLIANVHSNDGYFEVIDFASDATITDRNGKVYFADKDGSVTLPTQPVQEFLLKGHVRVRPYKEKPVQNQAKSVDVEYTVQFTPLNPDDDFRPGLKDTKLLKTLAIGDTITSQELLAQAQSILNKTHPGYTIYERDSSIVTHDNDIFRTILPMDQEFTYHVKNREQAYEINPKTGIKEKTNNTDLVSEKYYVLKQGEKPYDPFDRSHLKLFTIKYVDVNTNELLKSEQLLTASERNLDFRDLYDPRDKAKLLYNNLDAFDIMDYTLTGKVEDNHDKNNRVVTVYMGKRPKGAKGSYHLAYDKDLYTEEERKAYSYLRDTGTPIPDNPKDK
Nature of the assay: S. pyogenes streptokinase expression inhibitors, potency, dose response, plasminogen activation absorbance, OD405 (AID 1914).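 Further: secreted streptokinase activity via plasminogen activation per viability signal from cell pellet.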 The assay is classed as functional, Streptococcus pyogenes M1 GAS.

The subject of the next assay is Streptococcus. Nature of the assay: Group A Streptococcus viability loss, dose response, counter-screen for streptokinase expression inhibitor project, luminescence, BacTiterGlo (AID 1915).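 Further: potency for reduction of bacterial viability or growth.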 The assay is classed as functional, organism-based.
Assay [7] addresses T3, Fatty acid synthase (Homo sapiens, UniProt P49327). Nature of the assay: FAS thioesterase domain inhibitors, dose response, biochemical, endpoint fluorescence intensity, uHTS hits (AID 624327).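 Further: fluorescence from hydrolysis of an O-methyl fluorescein acyl ester substrate by the enzyme.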 The assay is classed as functional.
For assay [8], the target named is T3, Fatty acid synthase. Nature of the assay: FAS thioesterase domain inhibitors, dose response, biochemical, kinetic fluorescence intensity (AID 624326).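 Further: rate of fluorescence rise from hydrolysis of a fluorogenic O-methyl fluorescein ester substrate.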 The assay is classed as functional.
The nature of assay [9]: ADAM10 inhibitors, peptide cleavage, dose response, biochemical, QFRET (AID 743254).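 Further: ADAM10 enzyme with the DM2 quenched FRET peptide as substrate; EDANS fluorescence gain as the protease cuts the substrate; inhibitor potency against ADAM10 proteolytic activity.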
The target of assay [10] is Disintegrin and metalloproteinase domain-containing protein 17 (Homo sapiens, UniProt P78536). Nature of the assay: ADAM17 protease inhibitors, dose response, counter-screen for ADAM10 exosite inhibitor project, biochemical, quenched FRET substrate (AID 743253).
A short description of assay [11]: Artemis endonuclease inhibitor potency, dose response, biochemical, fluorescence intensity (AID 720701).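 Further: Artemis endonuclease enzyme.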 The assay is classed as functional.
The next assay addresses Paired box protein Pax-8 (Homo sapiens, UniProt Q06710). Nature of the assay: inhibitors of PAX8-driven TPO luciferase reporter, dose response, RMG-I cells, cherry-pick (AID 687027).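 Further: luciferase reporter driven by Pax8 target thyroperoxidase promoter measured by SteadyGlo luminescence.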 The assay is classed as functional, cell-based. Background: A reporter such as luciferase makes a cellular process visible.
Assay [12] can be described thus: IOSE-T80 ovarian epithelial cell cytotoxicity, dose response, cytotoxicity control for PAX8 inhibitor project, plate reader, dry powder samples (AID 743045). The assay is classed as functional, cell-based.
Assay [13] can be described thus: A2780 ovarian cancer cell cytotoxicity, dose response, cytotoxicity control, plate reader, dry powder samples (AID 743046). The class given is functional, cell-based.
Assay [14] is described as follows: NIH:OVCAR-3 ovarian cancer cell cytotoxicity, dose response, PAX8 inhibitor project, plate reader, dry powder samples (AID 743044). The class given is functional, cell-based.
Assay [15] in a line: A549 cell cytotoxicity, dose response, cytotoxicity control, plate reader, cherry-pick, antagonist series (AID 743412). The class given is functional, cell-based.
Assay [16] can be described thus: HepG2 cell cytotoxicity, dose response, cytotoxicity control, plate reader, cherry-pick, antagonist series (AID 743416). The assay is classed as functional, cell-based.
Assay [17] is described as follows: IGROV1 ovarian cancer cell cytotoxicity, dose response, PAX8 inhibitor project, plate reader, dry powder samples (AID 743043). The assay is classed as functional, cell-based. The conditions noted are these: IGROV-1.
The nature of assay [18]: LGR2 antagonists, dose response, cell-based, HEK293, CRE-luciferase reporter, cherry pick, set 2 (AID 743343).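 Further: transfected cells were stimulated with diluted bursicon conditioned medium after compound addition.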 The assay is classed as functional.
Assay [19] can be described thus: MC4R antagonists, dose response, counter-screen for LGR2 antagonist project, cell-based, plate reader, cherry pick (AID 743444).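 Further: transfected HEK 293 cells stimulated with alpha-MSH peptide; potency of inhibitors of the alpha-MSH evoked signal.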 The assay is classed as functional. Background: Counterscreens check selectivity or assay interference.
Assay [20] is described as follows: cytotoxicity in OVCAR8 ovarian cancer cells, dose response, PAX8 project, cell-based, plate reader, dry powder samples (AID 743197). The class given is functional. The conditions noted are these: OVCAR-8.
Assay [21] in a line: HEK293 cell cytotoxicity, dose response, cytotoxicity control, plate reader, cherry-picked samples (AID 743446). The class given is functional, cell-based.
Assay [22] in a line: P. falciparum 3D7-ScDHODH growth inhibitors, dose response, SYBR Green, dry powder samples (AID 1159570).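 Further: parasite growth measured after 72 hours of compound exposure.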 The assay is classed as functional, cell-based.
Assay [23] is described as follows: HepG2 cell cytotoxicity, dose response, cytotoxicity control, plate reader, dry powder samples (AID 1159569).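 Further: inhibitor potency with signal falling toward the positive control level.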 The class given is functional, cell-based.
Assay [24] is described as follows: P. falciparum Dd2 growth inhibitors, dose response, SYBR Green, cherry-picked samples (AID 1159567). The assay is classed as functional, cell-based.
Assay [25] in a line: P. falciparum Dd2 growth inhibitors, dose response, SYBR Green, dry powder samples (AID 1159566).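 Further: potency for growth inhibition with lower SYBR green DNA signal.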 The assay is classed as functional, cell-based.
The nature of assay [26]: P. falciparum ATP4 D1247Y mutant growth inhibitors, dose response, NITD609-resistant line, SYBR Green, dry powder (AID 1159571).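 Further: parasites synchronized at ring stage by sorbitol before testing.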 The class given is functional, cell-based.
Assay [27] concerns the target FAD-linked sulfhydryl oxidase ALR (Homo sapiens, UniProt P55789). Nature of the assay: inhibitors of human ALR sulfhydryl oxidase, dose response, biochemical, H2O2 detection, luminescence, cherry-pick (AID 493248).
For assay [28], the target named is T4, Rac GTPase-activating protein 1 (Homo sapiens, UniProt Q9H0H5).
T4 sequence (Q9H0H5 whole entry): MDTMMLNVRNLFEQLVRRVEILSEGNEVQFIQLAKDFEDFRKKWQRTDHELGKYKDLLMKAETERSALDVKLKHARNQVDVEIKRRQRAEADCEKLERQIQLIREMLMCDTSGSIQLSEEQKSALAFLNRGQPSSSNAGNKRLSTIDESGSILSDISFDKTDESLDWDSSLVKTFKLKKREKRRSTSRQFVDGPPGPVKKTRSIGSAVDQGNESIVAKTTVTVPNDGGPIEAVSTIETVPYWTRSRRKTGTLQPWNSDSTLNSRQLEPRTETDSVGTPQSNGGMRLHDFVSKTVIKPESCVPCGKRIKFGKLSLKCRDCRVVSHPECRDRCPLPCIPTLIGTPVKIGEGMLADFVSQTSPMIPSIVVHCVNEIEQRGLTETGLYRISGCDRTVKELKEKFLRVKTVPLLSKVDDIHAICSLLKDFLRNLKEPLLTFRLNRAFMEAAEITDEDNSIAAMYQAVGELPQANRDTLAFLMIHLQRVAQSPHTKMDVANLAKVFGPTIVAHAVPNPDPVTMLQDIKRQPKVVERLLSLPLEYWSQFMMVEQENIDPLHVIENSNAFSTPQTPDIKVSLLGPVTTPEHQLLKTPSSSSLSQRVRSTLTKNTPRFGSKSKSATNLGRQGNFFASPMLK
Nature of the assay: MgcRacGAP GTPase-activating activity inhibitors, confirmation, biochemical, ADP Hunter fluorescence, primary and confirmatory (AID 624330). The assay is classed as functional.

Assay [29] can be described thus: HepG2 cell cytotoxicity, dose response, cytotoxicity control, cherry-picked samples (AID 1159577). The assay is classed as functional, cell-based.
Assay [30] can be described thus: HepG2 cell cytotoxicity, dose response, cytotoxicity control, ATP luminescence, cherry-pick, set 6 (AID 1053125). The assay is classed as functional, cell-based.
Assay [31] in a line: cells. The conditions noted are these: A549.

This passage reports AC50, IC50 and EC50 results from ChEMBL document CHEMBL1201862, “PubChem BioAssay data set” (2004).

Active and inactive are the calls of the source. Bounds are passed on as bounds.

Chain of Protein Tat (P04608 whole entry): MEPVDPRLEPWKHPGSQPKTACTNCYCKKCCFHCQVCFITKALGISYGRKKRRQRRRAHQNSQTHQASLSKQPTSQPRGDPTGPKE
T3 sequence (P49327 whole entry, the tested form may be a part): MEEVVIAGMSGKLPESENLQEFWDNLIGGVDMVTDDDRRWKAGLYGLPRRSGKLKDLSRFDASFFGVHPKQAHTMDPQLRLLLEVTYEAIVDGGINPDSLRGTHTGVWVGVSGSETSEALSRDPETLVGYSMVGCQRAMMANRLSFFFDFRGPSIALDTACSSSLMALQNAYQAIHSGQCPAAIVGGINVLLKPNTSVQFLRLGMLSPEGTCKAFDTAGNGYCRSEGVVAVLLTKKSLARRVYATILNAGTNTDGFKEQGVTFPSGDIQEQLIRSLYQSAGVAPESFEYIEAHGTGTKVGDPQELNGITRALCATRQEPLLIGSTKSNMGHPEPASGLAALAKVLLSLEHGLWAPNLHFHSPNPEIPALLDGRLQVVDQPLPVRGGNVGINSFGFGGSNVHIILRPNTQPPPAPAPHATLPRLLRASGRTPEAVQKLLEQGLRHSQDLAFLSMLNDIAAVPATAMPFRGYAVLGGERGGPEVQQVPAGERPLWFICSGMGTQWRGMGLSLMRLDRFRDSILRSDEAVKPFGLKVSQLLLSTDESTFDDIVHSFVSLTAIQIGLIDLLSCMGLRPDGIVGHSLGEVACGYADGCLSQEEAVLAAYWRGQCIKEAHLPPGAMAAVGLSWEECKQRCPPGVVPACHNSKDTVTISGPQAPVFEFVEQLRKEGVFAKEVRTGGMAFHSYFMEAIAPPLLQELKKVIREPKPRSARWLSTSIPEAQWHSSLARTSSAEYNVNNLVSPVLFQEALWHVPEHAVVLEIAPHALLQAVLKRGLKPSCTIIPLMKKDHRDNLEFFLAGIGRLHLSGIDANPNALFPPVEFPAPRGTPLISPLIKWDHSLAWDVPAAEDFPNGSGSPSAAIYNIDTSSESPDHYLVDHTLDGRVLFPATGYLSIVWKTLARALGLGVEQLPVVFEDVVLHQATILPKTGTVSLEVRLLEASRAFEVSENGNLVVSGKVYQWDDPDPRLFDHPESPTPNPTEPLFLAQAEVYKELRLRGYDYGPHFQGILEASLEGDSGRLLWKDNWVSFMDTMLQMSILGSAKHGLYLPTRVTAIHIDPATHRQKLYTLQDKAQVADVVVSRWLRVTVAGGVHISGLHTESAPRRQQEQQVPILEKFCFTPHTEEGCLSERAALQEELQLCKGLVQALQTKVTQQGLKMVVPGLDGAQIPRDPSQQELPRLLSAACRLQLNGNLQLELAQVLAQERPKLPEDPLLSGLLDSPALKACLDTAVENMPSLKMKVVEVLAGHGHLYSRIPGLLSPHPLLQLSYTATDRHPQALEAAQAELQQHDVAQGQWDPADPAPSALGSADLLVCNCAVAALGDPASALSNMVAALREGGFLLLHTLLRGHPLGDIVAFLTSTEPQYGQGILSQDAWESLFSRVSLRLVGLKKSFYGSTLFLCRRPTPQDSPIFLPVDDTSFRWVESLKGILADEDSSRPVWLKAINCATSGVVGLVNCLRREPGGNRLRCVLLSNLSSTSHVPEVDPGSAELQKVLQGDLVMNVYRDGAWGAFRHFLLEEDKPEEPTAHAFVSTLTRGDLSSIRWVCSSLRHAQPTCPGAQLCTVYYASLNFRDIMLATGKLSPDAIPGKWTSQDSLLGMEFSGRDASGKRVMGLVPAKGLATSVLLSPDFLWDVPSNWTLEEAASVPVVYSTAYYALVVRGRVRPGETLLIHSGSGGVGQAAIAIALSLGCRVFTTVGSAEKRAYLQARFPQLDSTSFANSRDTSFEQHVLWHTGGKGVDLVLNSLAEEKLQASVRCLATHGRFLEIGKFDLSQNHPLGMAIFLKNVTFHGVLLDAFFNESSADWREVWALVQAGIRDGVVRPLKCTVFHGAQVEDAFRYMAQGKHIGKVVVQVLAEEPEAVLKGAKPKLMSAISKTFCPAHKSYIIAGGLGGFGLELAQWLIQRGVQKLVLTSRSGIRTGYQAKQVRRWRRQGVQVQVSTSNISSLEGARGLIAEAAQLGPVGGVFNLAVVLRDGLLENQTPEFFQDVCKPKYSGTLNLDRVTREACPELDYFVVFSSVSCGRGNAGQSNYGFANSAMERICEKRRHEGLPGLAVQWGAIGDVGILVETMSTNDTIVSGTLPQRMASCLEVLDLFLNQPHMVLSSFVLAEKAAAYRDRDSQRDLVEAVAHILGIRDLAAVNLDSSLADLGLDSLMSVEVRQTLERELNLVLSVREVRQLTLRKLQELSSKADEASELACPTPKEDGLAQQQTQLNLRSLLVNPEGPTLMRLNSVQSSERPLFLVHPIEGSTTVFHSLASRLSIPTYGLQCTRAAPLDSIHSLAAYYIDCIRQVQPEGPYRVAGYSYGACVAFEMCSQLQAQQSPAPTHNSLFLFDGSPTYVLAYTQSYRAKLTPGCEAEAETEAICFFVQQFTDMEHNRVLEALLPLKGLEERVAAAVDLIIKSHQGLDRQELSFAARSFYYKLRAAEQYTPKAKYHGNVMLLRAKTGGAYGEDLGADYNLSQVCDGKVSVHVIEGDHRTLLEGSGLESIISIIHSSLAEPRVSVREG
Chain of Protein Wnt-3a (P27467 whole entry): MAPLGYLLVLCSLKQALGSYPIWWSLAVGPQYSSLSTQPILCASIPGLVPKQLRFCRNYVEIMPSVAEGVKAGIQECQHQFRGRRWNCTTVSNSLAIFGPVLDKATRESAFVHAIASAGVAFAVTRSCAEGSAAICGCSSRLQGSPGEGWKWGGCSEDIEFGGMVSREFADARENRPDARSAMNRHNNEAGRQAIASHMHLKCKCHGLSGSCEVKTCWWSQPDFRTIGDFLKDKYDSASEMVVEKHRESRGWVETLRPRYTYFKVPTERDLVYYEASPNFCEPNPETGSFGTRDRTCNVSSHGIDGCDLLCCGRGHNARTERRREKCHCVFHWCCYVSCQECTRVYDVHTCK
Chain of FAD-linked sulfhydryl oxidase ALR (P55789 whole entry): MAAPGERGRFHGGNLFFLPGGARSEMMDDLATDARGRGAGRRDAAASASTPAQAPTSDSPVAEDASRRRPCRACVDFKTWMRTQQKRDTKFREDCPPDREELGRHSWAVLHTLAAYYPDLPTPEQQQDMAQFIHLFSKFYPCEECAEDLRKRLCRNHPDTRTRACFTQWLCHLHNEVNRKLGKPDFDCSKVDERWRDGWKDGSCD
Chain of Paired box protein Pax-8 (Q06710 whole entry): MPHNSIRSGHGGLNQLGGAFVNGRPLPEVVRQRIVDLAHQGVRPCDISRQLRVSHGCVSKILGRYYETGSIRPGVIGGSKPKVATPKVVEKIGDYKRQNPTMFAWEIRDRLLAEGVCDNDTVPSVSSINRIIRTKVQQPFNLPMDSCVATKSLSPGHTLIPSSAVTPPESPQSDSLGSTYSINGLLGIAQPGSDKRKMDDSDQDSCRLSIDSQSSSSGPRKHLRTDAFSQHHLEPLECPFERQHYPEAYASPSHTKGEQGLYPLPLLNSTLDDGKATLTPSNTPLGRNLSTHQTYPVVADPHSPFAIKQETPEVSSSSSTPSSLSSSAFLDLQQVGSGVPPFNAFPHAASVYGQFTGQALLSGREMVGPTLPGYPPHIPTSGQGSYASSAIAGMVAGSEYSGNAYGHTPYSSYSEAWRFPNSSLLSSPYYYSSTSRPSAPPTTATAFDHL
Chain of Disintegrin and metalloproteinase domain-containing protein 17 (P78536 whole entry, the tested form may be a part): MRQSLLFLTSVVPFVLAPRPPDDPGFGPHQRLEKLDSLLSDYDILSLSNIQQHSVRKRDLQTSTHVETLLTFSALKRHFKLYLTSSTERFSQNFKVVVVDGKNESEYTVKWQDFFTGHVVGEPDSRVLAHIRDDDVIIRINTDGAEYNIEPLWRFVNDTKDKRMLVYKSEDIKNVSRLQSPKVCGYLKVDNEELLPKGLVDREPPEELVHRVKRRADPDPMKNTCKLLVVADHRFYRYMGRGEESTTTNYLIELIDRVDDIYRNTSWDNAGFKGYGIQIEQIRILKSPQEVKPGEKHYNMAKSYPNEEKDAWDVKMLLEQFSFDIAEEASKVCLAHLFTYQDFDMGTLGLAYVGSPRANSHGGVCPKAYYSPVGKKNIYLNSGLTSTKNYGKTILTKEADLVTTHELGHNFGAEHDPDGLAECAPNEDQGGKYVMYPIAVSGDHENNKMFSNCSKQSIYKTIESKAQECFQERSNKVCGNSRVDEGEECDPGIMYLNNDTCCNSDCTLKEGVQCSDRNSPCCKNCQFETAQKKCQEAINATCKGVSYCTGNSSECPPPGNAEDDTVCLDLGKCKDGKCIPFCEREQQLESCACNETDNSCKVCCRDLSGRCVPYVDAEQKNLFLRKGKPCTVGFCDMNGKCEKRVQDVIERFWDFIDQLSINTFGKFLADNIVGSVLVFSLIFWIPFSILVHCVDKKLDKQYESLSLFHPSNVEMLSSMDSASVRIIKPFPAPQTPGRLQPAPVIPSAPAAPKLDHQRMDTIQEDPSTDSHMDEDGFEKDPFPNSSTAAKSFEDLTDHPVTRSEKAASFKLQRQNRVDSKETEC
Chain of COUP transcription factor 2 (P24468 whole entry): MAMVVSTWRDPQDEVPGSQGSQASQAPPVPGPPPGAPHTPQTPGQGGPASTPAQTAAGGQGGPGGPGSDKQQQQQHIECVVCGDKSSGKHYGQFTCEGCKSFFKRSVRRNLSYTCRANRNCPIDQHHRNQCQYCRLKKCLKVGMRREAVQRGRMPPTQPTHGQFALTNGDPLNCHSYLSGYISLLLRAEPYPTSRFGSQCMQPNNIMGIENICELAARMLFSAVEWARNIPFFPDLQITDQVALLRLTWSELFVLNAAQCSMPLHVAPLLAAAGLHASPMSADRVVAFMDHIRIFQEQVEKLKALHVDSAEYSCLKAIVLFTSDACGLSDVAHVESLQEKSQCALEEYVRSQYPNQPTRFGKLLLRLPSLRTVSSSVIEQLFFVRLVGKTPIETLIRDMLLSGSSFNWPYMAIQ

Usually AC50 stands for the concentration at which the activity in the assay is half-maximal. Usually EC50 stands for the concentration needed to bring the measured effect to its halfway point. `Cc1nn(C)c(C(=O)NCc2ccc(Cl)cc2)c1Cl`: the AC50 in [1] was 1.74 µM (active); in assay [2], 49.8 µM (active); in assay [3], 6.29 µM (active). The IC50 was 1.92 µM (active) at Protein Wnt-3a, 158 nM (active) on Galanin receptor type 3 and 14 µM (inactive) in [5]. Also, in “cells [4]”, the EC50 was > 29.9 µM (inactive).
In the case of `CC(=O)Oc1cccc(N2C(=O)CC(Nc3ccc(N4CCOCC4)cc3)C2=O)c1` (centres undefined), on Protein Tat, the IC50 is 10.5 µM (inconclusive).
Consider `Cc1ccc(NC(=O)c2[nH]cnc2C(=O)N[C@@H](CCCCNC(=O)OC(C)(C)C)C(=O)OC(C)(C)C)cc1`, for which the EC50 in [6] is 5.58 µM (active); at Streptokinase A, > 150 µM (not active); in the assay on Streptococcus, 7.99 µM (active). In addition, the IC50 on Fatty acid synthase [7] was 2.47 µM (active); on Fatty acid synthase [8], 1.09 µM (active); in [9], > 7.72 µM (active); in assay [10], > 69.5 µM (inactive).
Regarding `CCOC(=O)C1CCCN(Cc2nc(N)nc(Nc3ccc(Cl)cc3)n2)C1` (centres undefined), the IC50 in [11] was > 20 µM (inactive).
Regarding `O=C(C1CC1)N1C[C@@H]2N[C@H](C1)[C@@H]2c1ccc(-c2ccncc2)cc1`, the AC50 on Paired box protein Pax-8 was 2.98 µM (active); in assay [12], 12.2 µM (active); in assay [13], 12.7 µM (active); in [14], 13.2 µM (active); in assay [15], 2.89 µM (active); in assay [16], 21.4 µM (active). The concentration at half-maximal activity (AC50) in assay [17] is 13.1 µM (active); in assay [18] it was 5.41 µM (active); in assay [19], 4.85 µM (active); in assay [20] it was 12.1 µM (active); in assay [21], 24.5 µM (active); in assay [22], 629 nM (active). For the same molecule, the AC50 in assay [23] was > 100 µM (inactive); in [24], 965 nM (active); in assay [25], 555 nM (active); in assay [26], 974 nM (active).
For `CC(=O)N1CCN(c2ccc(NCc3ccc(F)cc3)cc2)CC1`, the AC50 in assay [27] was 198 nM (active). In addition, the values for the IC50 (in assay [28]; on Protein Tat) were 12.9 µM (active) and > 100 µM (inconclusive), respectively.
For `C[C@@H]1CN([C@@H](C)CO)C(=O)Cc2cc(NC(=O)Nc3ccc(F)cc3)ccc2O[C@H]1CN(C)Cc1ccc(Oc2ccccc2)cc1`, the concentration at half-maximal activity (AC50) in assay [24] is 1500 nM (active); in [29] it was 15.1 µM (active).
Turning to `CN(C)CCOCCOc1ccc(Cl)c2ccccc12`, the AC50 (in assay [30]; in the assay “cells [31]”) was > 52 µM (inactive) throughout.
